# From a melting point compilation (Tetko et al.; mined from patent text by program, amines drawn as free bases though some values may be those of a salt)
row,melting point [°C],SMILES
1,155 to 156,CCOCc1nc2c(N)nc3cc(-c4cccnc4)ccc3c2n1C[C@@H]1COC(C)(C)O1
2,134 to 135,Nc1cc(C=O)nc(C2CCC2)c1F
3,181 to 194,FC(F)(F)c1ccc(-c2cc3ncnc(Nc4ccc5[nH]ccc5c4)c3s2)cc1
4,65 to 68,C[C@H](COS(C)(=O)=O)NC(=O)OC(C)(C)C
5,136,CCOC(=O)c1cc(-c2ccc(OC)cc2)nn(Cc2ccc(Cl)cc2Cl)c1=O
6,146,COc1cccc(OC)c1-c1ccc(C[C@H](NC(=O)c2c(Cl)cc(-c3cnccn3)cc2Cl)C(=O)O)cc1
7,152,O=Cc1c(C2CC2)nc2ccccc2c1-c1ccc(F)cc1
8,71 to 75,CCOC(=O)C(=CNC1CC1)C(=O)c1cc(F)c(N2CCC(NC(C)=O)C2)nc1Cl (centres undefined)
9,113 to 115,CC12CCC(C1)C1(C)Oc3ccc(C(O)c4ccc(CO)cc4)cc3C21C (centres undefined)
10,103 to 105,CC(C)N1CCN(CCCOc2ccc3nc(C#N)nc(NCC(C)(C)C)c3c2)CC1
11,183,O=C(COc1cc(-c2ccsc2)nc2ccccc12)N1CCOCC1
12,139 to 141,CNC(=O)N1CC(Oc2ccc(F)cc2Cl)C1
13,140,COc1ccc(-c2cc(=O)n(CCc3ccccc3)nc2-c2ccc(OC)cc2)cc1
14,91 to 92,CCOC(=O)CCc1cc(O)nn1CC
15,> 300,COc1cc2cc3c(Nc4ccc(Sc5nccn5C)c(Cl)c4)c(C#N)cnc3cc2cc1OCCCCl
16,133 to 135,Cc1ccc2cc(NC(=O)c3cccc(CSc4cnccn4)c3)ccc2n1
17,167 to 171,CCC(=O)N1C(=S)NC(C)=C(C(=O)OC)C1c1cccc([N+](=O)[O-])c1 (centres undefined)
18,95 to 96,O=C(Cc1cc(OC(=O)c2ccccc2)no1)OC(c1ccccc1)c1ccccc1
19,153 to 154,Nc1ccccc1C(=O)NCC1CCN(C(c2ccccc2)c2ccccc2)CC1
20,215 to 216,CC(Cl)(Cl)C(NC(=O)c1ccc(Br)cc1)NC(=NC#N)Nc1ccc(Cl)nc1 (centres undefined)
21,95,Cn1nc2c(N)nc3c(c2c1CCCCNC(=O)N1CCOCC1)CCCC3
22,210 to 211,Cc1ccc(C2=NNC(=O)CC2)c(O)c1
23,175 to 177,Nc1ncc(Sc2ncccn2)s1
24,64 to 66,CC(=O)c1ccc2cc(C(C)Br)ccc2c1 (centres undefined)
25,150,COc1ccc(-c2ccc(S(=O)(=O)NCc3ccccn3)nc2)cc1
26,183 to 184,Cn1ccc2cc(NC(=O)CC34CC5CC(CC(C5)C3)C4)ccc21

# The remaining lines, values behind:
row,SMILES,melting point [°C]
1,Cc1ccc(CNc2cccc(C(=O)O)c2C(=O)O)o1,305 to 307
2,O=C1c2ccccc2C(=O)c2cc(Br)c(Br)cc21,> 300
3,O=C(O)c1cc(=O)c2ccc(COc3ccc(OCc4ccc5ccccc5n4)cc3)cc2o1,216 to 219
4,CCOC(=O)C(=CNc1cc(C)nn1-c1ccccc1)C(=O)OCC,70 to 72
5,Nc1nnn(C2CN3CCC2CC3)n1 (centres undefined),132 to 134
6,Clc1ccc2c(c1)N=C(N1CCN(CC3CC3)CC1)c1ccccc1N2,148 to 151
7,C#CCN(C(=O)c1cnc(Cl)nc1C(F)(F)F)S(=O)(=O)c1cccc(Cl)c1,106 to 107
8,CC(C)(C)OC(=O)N1CC(c2n[nH]c(-c3ccccn3)n2)C1,220
9,COc1cc(N)c(Cl)cc1C(=O)NCC1CCN(CCCCCC(=O)c2ccc3ccccc3c2)CC1,113 to 116
10,COC(=O)CCC(=NO)C(C)(C)NCCCNC(C)(C)C(Cn1ccnc1[N+](=O)[O-])=NO,137 to 139
11,N#Cc1c(-c2oc3ccccc3c2Cl)[nH]c(Cl)c1Cl,258 to 260
12,COc1cccc(Cn2nc3oc(=O)cc(C)c3c2C)c1,148 to 151
13,COc1cc(C(=O)C#CCOC(C)=O)cc(OC)c1OC,104 to 105
14,CCCc1nn(-c2ccc(C(F)(F)F)cn2)cc1CCCOc1ccc(CCC(=O)O)c(OC)c1,114 to 115
15,CC(C)=CC(=O)Nc1ccccc1CCN1CCN(c2nsc3ccccc23)CC1,52
16,CC(C)n1nc(C(Br)C(=O)c2ccccc2)ccc1=O (centres undefined),98 to 100
17,CC(=O)Nc1nc(C)c(S(=O)(=O)NCCN(C)C)s1,143
18,O=C(Cn1c(-c2cccc(Cl)c2)nc2cccnc21)NCCN1CCCCC1,114 to 115
19,CCn1c(=O)n(-c2ccc(Oc3nc4ccccc4n3C)cc2)c2ncc(Cl)cc21,208 to 210
20,O=C(O)CC[C@@H](Cc1ccc(OCc2ccccc2)cc1)NC(=O)CCCCCCc1ccccc1,128 to 130
21,Oc1ccc(-c2nc3ccc(O)cc3s2)cc1,284 to 286
22,Cc1cc(CNC(=O)c2nc3ccc(F)c(OCCc4ccc(C(=O)O)cc4)c3c(=O)[nH]2)ccc1F,267 to 268
23,O=C1C2CC=C(SC3=CCC4C(=O)N(c5ccccc5)C(=O)C4C3)CC2C(=O)N1c1ccccc1 (centres undefined),212 to 217
